Experimental findings from patent publication EP4775577A1, “RAS INHIBITOR” (Tyligand Bioscience (Shanghai) Limited, priority 2023, dated 2025) are described below.

The test system of series [1] is KRAS G12V mutant NCI-H727 cells. The series is described as follows: Proliferation inhibition of NCI-H727 cells, 3D CellTiter-Glo assay (Method B). The class given is cell-based, human. Particulars: Homo sapiens, NCI-H727, 120 h, Method B; 3D culture with 0.65% methylcellulose, 5 days, CTG; read-out: NCI-H727 IC50/nM. A digest of the protocol: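 Cells grown in 3D medium (RPMI-1640, 10% FBS, 0.65% methylcellulose) overnight, then treated 5 days at 37 °C, 5% CO2 with 9 threefold dilutions from 10 µM top working concentration, duplicate wells. CellTiter-Glo luminescence read; IC50 (nM) fitted by dose-response-inhibition equation.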

The test system of series [2] is KRAS G12D mutant AGS cells. The series can be described thus: Proliferation inhibition of AGS cells, CellTiter-Glo assay. It counts as cell-based, human. Particulars: Homo sapiens, AGS, 72 h, 3 days, CTG; read-out: AGS IC50/nM. A digest of the protocol:
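AGS cells at 1500 cells/well in F12K + 10% FBS were exposed for 3 days at 37°C to nine 3-fold dilutions from 10 µM top concentration, in duplicate. Viability read by CellTiter-Glo luminescence; IC50 (nM) from dose-response-inhibition fitting.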

Series [3] relates to human lung cancer cells NCI-H441 with KRAS-G12V mutation. The series is described as follows: Antitumor effect in NCI-H441 subcutaneous xenograft model. It counts as in vivo, NU/NU mice. Particulars: 20 mpk, PO; for Tumor volume (mm^3) (day 16): BID×17; for TGI%: BID×17, day 16. On the procedure:
NCI-H441 cells were purchased from ATCC (catalog number: HTB-174). Male NU/NU mice were purchased from Jiangsu Jicui Yaokang Biotechnology Co., Ltd.
NCI-H441 cells were cultured in RPMI-1640 medium containing 10% FBS. Cells in the logarithmic growth phase were collected and resuspended in PBS to an appropriate concentration for subcutaneous tumor inoculation in mice. Experimental mice were subcutaneously inoculated in the right posterior back at a seeding density of 1×10^6 cells/mouse+Matrigel, with a seeding volume of 0.1 mL. When the average tumor volume reached ~150 mm^3, mice were randomly assigned to groups based on tumor size and body weight for drug administration. Drug administration began immediately after grouping, and the day of administration was considered day 0. The drug was administered to the mice twice daily via gavage at doses of 10 mpk, 20 mpk, 30 mpk, or a solvent control (0.5% Tween 80+99.5% of 0.5% MC (400 cp) or 0.5% MC (400 cp)). During the experiment, mouse body weight and tumor size were measured twice weekly. Tumor size was calculated using the formula: Tumor volume (mm^3)=0.5×(Tumor long diameter × Tumor short diameter^2). Relative tumor inhibition rate (TGI) (%): TGI%=[1-(Average tumor volume at the end of treatment in a given treatment group - Average tumor volume at the start of treatment in the treatment group) / (Average tumor volume at the end of treatment in the solvent control group - Average tumor volume at the start of treatment in the solvent control group)] × 100%.

Series [4] relates to human pancreatic cancer cells HPAC. Particulars: po, 20 mg/kg, 408 h.
Description: The following materials were used in this experiment: NOD/SCID mice, 6-8 weeks old, female, Jiangsu Jicui Yaokang Biotechnology Co., Ltd.; HPAC cells (carrying KRas G12D mutant protein, ATCC); Captisol (Wuhan Fengyao Tonghui Chemical Products Co., Ltd., Cas#182410-00-0); sodium acetate (aladdin) MC (sigma, 9004-67-5).
The experiment was conducted as follows: 6- to 8- week-old female NOD/SCID mice were subcutaneously inoculated with 1×10^7 HPAC cells in their right posterior back, with an inoculation volume of 0.1 mL. When the tumor reached an average volume of 150 mm^3, mice were randomly assigned to groups based on tumor size and body weight for drug administration. The day of drug administration was considered day 0. The test compound was administered by gavage to four mice in each group, while the control group received an equal volume of the solvent via gavage.
During the experiment, tumor volume and body weight were measured twice a week. Tumor volume was calculated using the formula: Tumor volume (mm^3)=0.5×(tumor long diameter×tumor short diameter^2). The mean tumor inhibition rate (TGI%) was calculated as follows: [(average tumor volume in the control group-average initial tumor volume in the control group)-(average tumor volume in the treatment group - average initial tumor volume in the treatment group)] / (average tumor volume in the control group - average initial tumor volume in the control group).
Series [5] concerns KRAS G12S mutant A549 cells. The series can be described thus: Proliferation inhibition of A549 cells, 3D CellTiter-Glo assay. Particulars: Homo sapiens, A549, 120 h, read-out: A549 IC50/nM. It counts as cell-based. On the procedure: A549 cells (Nanjing Kebai Biotechnology Co., Ltd., catalog number CBP60084, adherent, culture medium (F12K Nutrient Mixture+10%FBS (GIBCO, Cat#10091-148) at 37°C, 5%CO2, and 95% humidity.
3D Cell Viability Assay: Cells in the logarithmic growth phase were harvested and counted using a platelet counter. Cell viability was assessed using the trypan blue exclusion method to ensure a viability of over 90%. The 3D cell culture medium was prepared by adding 1% MC (methylcellulose, Sigma, Cat#M0512) F-12K medium and 10% FBS. The cell concentration was adjusted to approximately 7407 cells/mL using the 3D medium, and the methylcellulose (MC) content was set to 0.65%. Then, 135 µL of cell suspension was added to each 96-well clear, flat-bottomed, black-walled plate (Greiner, Cat#655096). The cells in the 96-well plates were cultured overnight at 37°C with 5% CO2.
Drug preparation for IC50 assay: A 10-fold drug solution was prepared using culture medium. […] of the drug solution was added to each well of a 96-well plate seeded with cells to achieve a working concentration of up to 10 µM, with a 3× dilution, and 9 concentrations. 2 replicate wells for each drug concentration were set. The cells in the drug-treated 96-well plates were cultured at 37°C and 5% CO^2 for additional5 days, then CTG assay (CellTiter-Glo® Luminescent Cell Viability Assay (Promega, Cat#G7573)) were performed.
The cell plate was equilibrated to room temperature for 30 minutes and the CTG reagent was thawed. 75 µL of CTG solution was added to each well for detection, and the plate was shaken on an orbital shaker for 5 minutes to lyse the cells. The cell plate was placed at room temperature for 25 minutes to stabilize the cryo-luminescence signal and the cryo-luminescence value was read (EnVision® multi-plate reader, PerkinElmer#2105).
Data was analyzed using GraphPad Prism software. The dose-response-inhibition equation was used to fit the data to obtain the dose-response curve, and the IC50 value (nM) was calculated accordingly. [formula]

The next series in a line: in vivo. The conditions noted are these: mouse, po, 20 mg/kg.

Description for in vivo: Male CD-1 mice, aged 6-8 weeks, were purchased from Zhejiang Vital River Laboratory Animal Co., Ltd.
For the PO administration group, compounds were formulated in 0.5% Tween 80 and 99.5% (0.5%MC (400cp)) vehicle or 0.5%MC (400cp) vehicle to a final concentration of 1 mg/mL or 2 mg/mL for each compound. The drug formulation was administered to CD-1 mice via gavage at a dose of 10 mL/kg. Blood samples were collected from the submandibular vein or other suitable means at 15 min, 30 min, 1 h, 2 h, 4 h, 6 h, 8 h, and 24 h after administration. The blood samples were centrifuged at low temperature for 5 minutes, and the plasma was collected and stored at -80°C for analysis.
10 µL of plasma sample was taken, 200 µL of methanol containing an internal standard as a precipitant was added to precipitate plasma proteins, the compounds to be tested in the plasma was extracted, centrifuged at low temperature, and 10 µL of the supernatant was injected. The drug concentration in blood plasma was analyzed by LC-MS/MS. The pharmacokinetic parameters were calculated using Winnonlin based on the blood drug concentration data at different time points.

Turning to `[2H]C([2H])([2H])N1CCC(=CF)C(C)(COc2nc(N3CCCn4nc(C(=O)N(C)C)c(Cl)c4C3)c3cc(CC)c(-c4c(F)ccc5sc(N)c(C#N)c45)c(F)c3n2)C1` (atropisomer, axis not shown) [Example 265A], the IC50 in series [1] came out at 2.8 nM. For the same compound, the IC50 in series [2] was less than 1.5 nM. Further, in series [3], the “Tumor volume (mm^3) (day 16)” value was determined as 330 mm^3 and the TGI% was determined as 57%. In series [4], the “TGI%” value was 80% and the “Tumor volume (mm^3) (day 17)” value was determined as 237 mm^3.

Turning to `CCc1cc2c(N3Cc4cc(C(=O)N(C)C)nn4CC[C@@H]3C)nc(OC[C@]3(C)CN(CC)CC/C3=C\F)nc2c(F)c1-c1c(F)ccc2sc(N)c(C#N)c12` (single isomer, unassigned) [Example 175A], the IC50 in series [1] is less than 1.5 nM; in series [2], less than 1.5 nM; in series [5], 23.3 nM. Moreover, the “Tumor volume (mm^3) (day 16)” value in series [3] was 266 mm^3. The same compound returned a TGI% in series [3] of 73%.

With `CCN1CC/C(=C\F)[C@](C)(COc2nc(N3Cc4c(COC)c(C(=O)N(C)C)nn4CC[C@@H]3C)c3cc(C(F)(F)F)c(-c4c(F)ccc5sc(N)c(C#N)c45)c(F)c3n2)C1` (single isomer, unassigned) [Example 232A], the IC50 in series [1] and in series [2] was less than 1.5 nM in each case. This compound also came in with an area under the curve AUC(0-t) at 8 h in “in vivo” of 1520 ng·h/mL.

As to `[2H]C([2H])([2H])N1CC/C(=C\F)[C@](C)(COc2nc(N3Cc4cc(C(=O)N(C)C)nn4CC[C@@H]3C)c3cc(C(F)(F)F)c(-c4c(F)ccc5sc(N)c(C#N)c45)c(F)c3n2)C1` (single isomer, unassigned) [Example 247A], the IC50 in series [1] was less than 1.5 nM. The IC50 in series [2] is less than 1.5 nM. In series [3], the “Tumor volume (mm^3) (day 16)” value is 162 mm^3 and the TGI% turned out to be 97%. Further, in series [4], the “TGI%” value is 98% and the “Tumor volume (mm^3) (day 17)” value was determined as 161 mm^3.

Take `[2H]C([2H])([2H])N1CC/C(=C\F)[C@](C)(COc2nc(N3CCCn4nc(C(=O)N(C)C)c(Cl)c4C3)c3cc(C4CC4)c(-c4c(F)ccc5sc(N)c(C#N)c45)c(F)c3n2)C1` [Example 266A]: the IC50 in series [1] was found to be 3 nM. Moreover, the IC50 in series [2] is less than 1.5 nM. In series [3], the “Tumor volume (mm^3) (day 16)” value is on record as 307 mm^3 and the TGI% was 63%.
